According to PubChem BioAssay (NCI):
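These data come from cells grown in 96-well plates and exposed to compound for 48 hours at five concentrations. GI50 = concentration required for 50% inhibition of growth. TGI: total growth inhibition.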

Experiments:
Assay in all cases: NCI anticancer screen, dose series, 48 h
786-0 renal = tested on: 786-0 renal
A498 renal = tested on: A498 renal
A549 NSCLC = tested on: A549 NSCLC
ACHN renal = tested on: ACHN renal
BT-549 breast = tested on: BT-549 breast
CAKI-1 renal = tested on: CAKI-1 renal
CCRF-CEM leukemia = tested on: CCRF-CEM leukemia
COLO 205 colon = tested on: COLO 205 colon
DU-145 prostate = tested on: DU-145 prostate
EKVX NSCLC = tested on: EKVX NSCLC
HCC-2998 colon = tested on: HCC-2998 colon
HCT-116 colon = tested on: HCT-116 colon
HCT-15 colon = tested on: HCT-15 colon
HL-60(TB) leukemia = tested on: HL-60(TB) leukemia
HOP-62 NSCLC = tested on: HOP-62 NSCLC
HOP-92 NSCLC = tested on: HOP-92 NSCLC
HS 578T breast = tested on: HS 578T breast
HT29 colon = tested on: HT29 colon
IGROV1 ovarian = tested on: IGROV1 ovarian
K-562 leukemia = tested on: K-562 leukemia
KM12 colon = tested on: KM12 colon
LOX IMVI melanoma = tested on: LOX IMVI melanoma
M14 melanoma = tested on: M14 melanoma
MALME-3M melanoma = tested on: MALME-3M melanoma
MCF7 breast = tested on: MCF7 breast
MDA-MB-231 breast = tested on: MDA-MB-231 breast
MDA-MB-435 = tested on: MDA-MB-435
MOLT-4 leukemia = tested on: MOLT-4 leukemia
NCI-H226 lung = tested on: NCI-H226 lung
NCI-H23 lung = tested on: NCI-H23 lung
NCI-H460 lung = tested on: NCI-H460 lung
NCI-H522 lung = tested on: NCI-H522 lung
NCI/ADR-RES ovarian = tested on: NCI/ADR-RES ovarian
OVCAR-3 ovarian = tested on: OVCAR-3 ovarian
OVCAR-4 ovarian = tested on: OVCAR-4 ovarian
OVCAR-5 ovarian = tested on: OVCAR-5 ovarian
OVCAR-8 ovarian = tested on: OVCAR-8 ovarian
PC-3 prostate = tested on: PC-3 prostate
RPMI-8226 leukemia = tested on: RPMI-8226 leukemia
RXF 393 renal = tested on: RXF 393 renal
SF-268 CNS = tested on: SF-268 CNS
SF-295 CNS = tested on: SF-295 CNS
SF-539 CNS = tested on: SF-539 CNS
SK-MEL-2 melanoma = tested on: SK-MEL-2 melanoma
SK-MEL-28 melanoma = tested on: SK-MEL-28 melanoma
SK-MEL-5 melanoma = tested on: SK-MEL-5 melanoma
SK-OV-3 ovarian = tested on: SK-OV-3 ovarian
SN12C renal = tested on: SN12C renal
SNB-19 CNS = tested on: SNB-19 CNS
SNB-75 CNS = tested on: SNB-75 CNS
SR leukemia = tested on: SR leukemia
SW-620 colon = tested on: SW-620 colon
T-47D breast = tested on: T-47D breast
TK-10 renal = tested on: TK-10 renal
U251 CNS = tested on: U251 CNS
UACC-257 melanoma = tested on: UACC-257 melanoma
UACC-62 melanoma = tested on: UACC-62 melanoma
UO-31 renal = tested on: UO-31 renal

`Nc1nc2c(c3cnccc13)C(c1cccc(Br)c1)Cc1cnccc1-2` (stereo unspecified) showed a GI50 (786-0 renal) of 482 nM, a TGI (786-0 renal) of 12600 nM and a GI50 (A498 renal) of 233 nM. It also gave a TGI (A498 renal) of 824 nM, a GI50 (A549 NSCLC) of 627 nM and a TGI (A549 NSCLC) of 13600 nM. The GI50 (ACHN renal) was 1100 nM, the TGI (ACHN renal) was 12500 nM and the GI50 (BT-549 breast) was 526 nM. For the same molecule, the TGI (BT-549 breast) was 5480 nM, the GI50 (CAKI-1 renal) was 422 nM and the TGI (CAKI-1 renal) was 14400 nM. For the same molecule, the GI50 (CCRF-CEM leukemia) was 373 nM, the TGI (CCRF-CEM leukemia) was 14100 nM and the GI50 (COLO 205 colon) was 273 nM. It also gave a TGI (COLO 205 colon) of 1070 nM, a GI50 (DU-145 prostate) of 344 nM and a TGI (DU-145 prostate) of 11300 nM. The GI50 (EKVX NSCLC) was 487 nM, the TGI (EKVX NSCLC) was 21500 nM and the GI50 (HCC-2998 colon) was 3620 nM. For the same molecule, the TGI (HCC-2998 colon) was 18800 nM, the GI50 (HCT-116 colon) was 442 nM and the TGI (HCT-116 colon) was 11400 nM. For the same molecule, the GI50 (HCT-15 colon) was 362 nM, the TGI (HCT-15 colon) was 10500 nM and the GI50 (HL-60(TB) leukemia) was 329 nM. It also gave a TGI (HL-60(TB) leukemia) of 961 nM, a GI50 (HOP-62 NSCLC) of 465 nM and a TGI (HOP-62 NSCLC) of 18900 nM. It also gave a GI50 (HOP-92 NSCLC) of 639 nM, a TGI (HOP-92 NSCLC) of 16700 nM and a GI50 (HS 578T breast) of 423 nM. The TGI (HS 578T breast) was 29200 nM, the GI50 (HT29 colon) was 341 nM and the TGI (HT29 colon) was 1790 nM. For the same molecule, the GI50 (IGROV1 ovarian) was 850 nM, the TGI (IGROV1 ovarian) was 17800 nM and the GI50 (K-562 leukemia) was 346 nM. It also gave a TGI (K-562 leukemia) of 17400 nM, a GI50 (KM12 colon) of 436 nM and a TGI (KM12 colon) of 13600 nM. It also gave a GI50 (LOX IMVI melanoma) of 427 nM, a TGI (LOX IMVI melanoma) of 13700 nM and a GI50 (M14 melanoma) of 215 nM. The TGI (M14 melanoma) was 615 nM, the GI50 (MALME-3M melanoma) was 515 nM and the TGI (MALME-3M melanoma) was 18700 nM. For the same molecule, the GI50 (MCF7 breast) was 324 nM, the TGI (MCF7 breast) was 12200 nM and the GI50 (MDA-MB-231 breast) was 1110 nM. The TGI (MDA-MB-231 breast) was 15700 nM, the GI50 (MDA-MB-435) was 154 nM and the TGI (MDA-MB-435) was 571 nM. It also gave a GI50 (MOLT-4 leukemia) of 418 nM, a TGI (MOLT-4 leukemia) of 12100 nM and a GI50 (NCI-H226 lung) of 949 nM. The TGI (NCI-H226 lung) was 18900 nM, the GI50 (NCI-H23 lung) was 635 nM and the TGI (NCI-H23 lung) was 14100 nM. For the same molecule, the GI50 (NCI-H460 lung) was 370 nM, the TGI (NCI-H460 lung) was 11500 nM and the GI50 (NCI-H522 lung) was 214 nM. For the same molecule, the TGI (NCI-H522 lung) was 620 nM, the GI50 (NCI/ADR-RES ovarian) was 323 nM and the TGI (NCI/ADR-RES ovarian) was 10200 nM. For the same molecule, the GI50 (OVCAR-3 ovarian) was 339 nM, the TGI (OVCAR-3 ovarian) was 14100 nM and the GI50 (OVCAR-4 ovarian) was 1730 nM. For the same molecule, the TGI (OVCAR-4 ovarian) was 34100 nM, the GI50 (OVCAR-5 ovarian) was 875 nM and the TGI (OVCAR-5 ovarian) was 21800 nM. The GI50 (OVCAR-8 ovarian) was 780 nM, the TGI (OVCAR-8 ovarian) was 44600 nM and the GI50 (PC-3 prostate) was 460 nM. For the same molecule, the TGI (PC-3 prostate) was 14000 nM, the GI50 (RPMI-8226 leukemia) was 392 nM and the TGI (RPMI-8226 leukemia) was 12300 nM. It also gave a GI50 (RXF 393 renal) of 288 nM, a TGI (RXF 393 renal) of 953 nM and a GI50 (SF-268 CNS) of 852 nM. For the same molecule, the TGI (SF-268 CNS) was 18300 nM, the GI50 (SF-295 CNS) was 271 nM and the TGI (SF-295 CNS) was 1950 nM. For the same molecule, the GI50 (SF-539 CNS) was 235 nM, the TGI (SF-539 CNS) was 821 nM and the GI50 (SK-MEL-2 melanoma) was 303 nM. For the same molecule, the TGI (SK-MEL-2 melanoma) was 1910 nM, the GI50 (SK-MEL-28 melanoma) was 3810 nM and the TGI (SK-MEL-28 melanoma) was 20300 nM. It also gave a GI50 (SK-MEL-5 melanoma) of 475 nM, a TGI (SK-MEL-5 melanoma) of 3450 nM and a GI50 (SK-OV-3 ovarian) of 586 nM. It also gave a TGI (SK-OV-3 ovarian) of 17100 nM, a GI50 (SN12C renal) of 877 nM and a TGI (SN12C renal) of 22900 nM. It also gave a GI50 (SNB-19 CNS) of 410 nM, a TGI (SNB-19 CNS) of 15200 nM and a GI50 (SNB-75 CNS) of 243 nM. It also gave a TGI (SNB-75 CNS) of 12700 nM, a GI50 (SR leukemia) of 243 nM and a TGI (SR leukemia) greater than 100000 nM. It also gave a GI50 (SW-620 colon) of 420 nM, a TGI (SW-620 colon) of 17400 nM and a GI50 (T-47D breast) of 411 nM. For the same molecule, the TGI (T-47D breast) was 40400 nM, the GI50 (TK-10 renal) was 613 nM and the TGI (TK-10 renal) was 13600 nM. For the same molecule, the GI50 (U251 CNS) was 342 nM, the TGI (U251 CNS) was 2970 nM and the GI50 (UACC-257 melanoma) was 12100 nM. It also gave a TGI (UACC-257 melanoma) of 27000 nM, a GI50 (UACC-62 melanoma) of 406 nM and a TGI (UACC-62 melanoma) of 14200 nM. The GI50 (UO-31 renal) was 1200 nM and the TGI (UO-31 renal) was 15500 nM.
